Measurements reported in PubChem BioAssay AID179 (DTP/NCI, 2004).
pEC50, pIC50: −log10 of the molar value. Calls of active or inactive are those of the source.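 How the source made its calls: active means compounds giving half or more protection of infected cells from virus-caused growth loss, again on retest; inactive means the rest.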

Test system: CEM cells HIV-1 protection, formazan growth assay
Test: NCI AIDS Antiviral Assay
Details: for pIC50: measured here: growth of uninfected CEM cells
How it was run: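 CEM (human) cells, HIV-1 infected vs uninfected, 5-point dosing, formazan growth read-out. Retest threshold 50% protection.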

Compound | outcome | pEC50 | pIC50
C=C1C(=O)OC2C1CC[C@H](C)C13OC(=O)CC1[C@@]23C (some centres undefined) | inactive |  | 
O=C(NCc1ccc(Cl)cc1)c1cc2sccc2nc1C(F)(F)F |  | 4.03 | < 3.70
[Cl][Cu][Cl] |  | < 3.70 | 3.74
C=CC(=O)c1ccc2c(c1)OCCOCCOCCOCCOCCO2 |  | < 3.17 | 5.15
COc1ccc(/C=C\c2cc(OC)c(OC)c(OC)c2)cc1OCC(=O)O | inactive |  | 
CCOC(=O)C1(C)CC12CCCCC2 (centres undefined) |  | < 3.70 | < 3.70
Cc1ccccc1C=NC12CC3CC(CC(C3)C1)C2 |  | < 4.27 | < 4.27
C[C@]12CC(O)C3[C@@H](CC=C4CC(O)CC[C@@]43C)C1CCC2O (some centres undefined) | inactive |  | 
C=C(Cc1ccc(O)cc1)C(=C)Cc1ccc(O)cc1 |  | < 3.70 | 4.16
O=C1NC(=O)C(Cc2cccc(OCc3ccccc3)c2)C(=O)N1 |  | < 3.70 | < 3.70
OC(OCC(COC(O)C(Br)Br)(COC(O)C(Br)Br)COC(O)C(Br)Br)C(Br)Br (centres undefined) |  | < 4.00 | < 4.00
CCOC(=O)NC(=O)c1cn(CCCOC(=O)NCCCCCCNC(=O)OCCCn2cc(C(=O)NC(=O)OCC)c(=O)[nH]c2=O)c(=O)[nH]c1=O | inactive |  | 
C[C@H](NC(=O)CNC(=O)CCCCCC(=O)NCC(=O)N[C@@H](C)C(=O)OCc1ccccc1)C(=O)OCc1ccccc1 |  | < 3.70 | < 4.00
CC1(C)N=C(C(N)=O)c2ncn(CCCO)c2N1 |  | < 3.70 | < 3.70
CC1(C)CC(=O)/C(=C/C2CCNC2=S)C(=O)N1 (centres undefined) |  | < 3.30 | < 3.30
Cc1cccc2c1NC(c1c(C)[nH]c3ccccc13)C2 (centres undefined) | inactive |  | 
CC(=O)c1ccccc1NC(=O)C(=O)C(C(=O)c1ccccc1-c1ccccc1)C1OC(=O)c2ccccc21 (centres undefined) |  | < 4.30 | 4.57
COC(=O)[C@H](COC(=O)/C=C/c1ccc(OC(C)=O)c(OC(C)=O)c1)NC(=O)/C=C/c1ccc(OC(C)=O)c(OC(C)=O)c1 |  | < 4.00 | 4.75
N#C/C(=C/Sc1ccccc1)C(=O)O | inactive |  | 
CCN(CC)CCOc1ccc(N2C(=O)c3cccc4cc([N+](=O)[O-])cc(c34)C2=O)cc1 |  | < 3.70 | 5.61
NC(=S)N/N=C/c1ncccc1O |  | < 4.90 | 6.10

Compound | outcome | pEC50 | pIC50
NN1C(=O)C(CCO)S/C1=N/N=C1/SC(CCO)C(=O)N1N (centres undefined) |  | < 4.13 | < 4.13
[C-]#[O+].[C-]#[O+].[C-]#[O+].[C-]#[O+].[C-]#[O+].[C-]#[O+].[Fe].[Fe].c1ccc([P-]c2ccccc2[P-]c2ccccc2)cc1 (centres undefined) |  | < 5.74 | < 5.74
NC1=NS(=O)(=O)N=C(N)C1=NNc1cccc(Cl)c1 |  | < 3.08 | 3.86
Cc1ccc(-c2cc(=S)n(-c3ccccc3)c3nc(=S)n(-c4ccccc4)c(N)c23)cc1 |  | < 3.70 | 3.86
CCCCCCCCCCCCCCCCOC1OC(CS(=O)(=O)S(=O)(=O)CC2OC(OCCCCCCCCCCCCCCCC)C(O)C(O)C2O)C(O)C(O)C1O (centres undefined) |  | < 5.10 | 
CC(=O)Nc1cccc2[nH]c3ccccc3c(=O)c12 | inactive |  | 
CC(=O)CC(=O)ON(C)C(=O)Cc1ccccc1 |  | < 3.00 | < 3.00
[N-]=[N+]=C(C(=O)OCC#CCOC(=O)C(=[N+]=[N-])S(=O)(=O)c1ccccc1)S(=O)(=O)c1ccccc1 |  | < 3.70 | 3.87
CN(C)CCNC(=O)Cn1cc([N+](=O)[O-])c(=O)c2ccccc21 |  | < 3.70 | < 3.70
CS(=O)(=O)O[C@H]1[C@H](O)c2ccccc2[C@@H]1N=[N+]=[N-] |  | < 3.70 | < 3.70
CN1CCC(O)(c2ccc(F)cc2)C(C(=O)c2ccc(F)cc2)C1 (centres undefined) |  | < 3.70 | 4.14
Clc1ccccc1C(n1ncc2ccccc21)n1ncc2ccccc21 | inactive |  | 
O=C(c1ccco1)C1CC(c2ccc3ccccc3c2O)=NN1c1ccc([N+](=O)[O-])cc1[N+](=O)[O-] (centres undefined) |  | < 3.70 | 4.80
COc1cc(C2c3cc4c(cc3OC(NCCO)C2C)OCO4)cc(OC)c1O (centres undefined) |  | < 3.70 | 5.50
CCN(CC)CCOc1ccc(/C(C#N)=C/c2ccccc2OCCN(CC)CC)cc1 |  | < 3.70 | 5.58
CCCSc1nc(-c2ccc(OC)cc2)c(C#N)c(=O)n1C1OC(COC(C)=O)C(OC(C)=O)C(OC(C)=O)C1OC(C)=O (centres undefined) |  | < 3.70 | < 3.70
C=CCN(CC=C)c1nc(Cl)nc(Cl)n1 |  | < 3.70 | < 3.70
O/N=C1/C(=C/c2ccc(OCc3ccccc3)cc2)CCCC1C(NO)c1ccc(OCc2ccccc2)cc1 (centres undefined) |  | < 5.15 | < 5.15
C=CCOc1ccc2c(C)cc(=O)oc2c1C |  | < 3.95 | 3.99
CCOc1ccc(NC(=O)C(=O)NO)cc1 |  | < 3.52 | 3.75
COc1ccc(C2=C/C(=C/c3ccc(N(CCC#N)CCC#N)cc3)C(=O)O2)cc1 |  | < 4.88 | < 4.88

Compound | outcome | pEC50 | pIC50
O=C1c2c(O)cc(O)cc2O[C@@]12c1c(cc(O)c3c1O[C@H](c1ccc(O)cc1)[C@@H](O)C3)O[C@@H]2c1ccc(O)cc1 |  | 5.59 | 4.30
O=c1ccc2ccc(O)cc2o1 |  | < 2.81 | 3.52
O=S(=O)(Oc1ccccn1)c1ccc(Br)cc1 |  | < 3.70 | < 3.70
O=c1[nH]cc(CN2CCOCC2)c(=O)[nH]1 |  | < 3.21 | < 3.21
Cc1cc(C)c2c(c1)C/C(=C\c1ccccc1C(=O)O)C2=O | inactive |  | 
CCOC(=O)c1ccc(CSc2ccccc2C(=O)OCC)c([N+](=O)[O-])c1 |  | < 5.15 | < 5.15
N#CCCN(C1=NN(C(=O)CC(=O)Nc2ccccc2)C(c2ccccc2)C1)c1ccccc1Cl (centres undefined) |  | < 3.57 | < 3.57
CC(C)OP(=O)(OC(C)C)/C(I)=N/Nc1ccc([N+](=O)[O-])cc1 |  | < 3.96 | < 3.96
CC12CCCCC1C(=O)C2(Cl)Cl (centres undefined) | inactive |  | 
CCc1cc2c(oc3c4ccccc4ccc23)c(=O)[nH]1 |  | < 3.70 | < 3.70
CCSc1c2ccccc2c(-c2nc(F)nc(F)n2)n1CCc1ccccc1 |  | < 4.88 | < 4.88
CC(C)(Oc1ccc(C2C[C@H]2Cl)cc1)C(=O)O (some centres undefined) |  | < 3.70 | < 3.70
O=[N+]([O-])c1ccc(C2CC(c3ccc(NCc4nc5ccccc5[nH]4)cc3)=NO2)cc1 (centres undefined) |  | < 5.04 | < 5.04
COC(=O)CCSSCCC(=O)OC |  | < 2.98 | 3.74
COC(CNC(=O)C(C)NC(=O)CCc1ccccc1)OC (centres undefined) | inactive |  | 
O=S(=O)(CC1=NC2C=CC=CC2N=C1)NCc1ccccc1 (centres undefined) | inactive |  | 
CCNC(=O)Cc1nc2c(N)ncnc2n1C1OC(CO)C(O)C1O (centres undefined) |  | < 3.70 | 4.09
COc1ccc(-n2[nH]c3c(cnc4ccccc43)c2=O)cc1 |  | < 3.70 | < 3.70
C[C@@H](c1ccccc1)N1C[C@@H](c2ccc3c(c2)OCO3)[C@@H]2C(=O)CCC[C@@H]21 |  | < 3.70 | 3.95
CC1(C)C(O)CC[C@@]2(C)C1CC[C@]1(C)C2CC=C2[C@@H]3C[C@](C)(C(=O)O)CC[C@]3(C)CCC21C (some centres undefined) |  | < 3.70 | 4.56
O=C(/C=C/c1cc(O)c(O)cc1O)OCCc1ccccc1 |  | < 3.70 | 5.03

Compound | outcome | pEC50 | pIC50
CC(C)CCCC(C)[C@H]1CCC2C3CC[C@H]4C[C@@H](CCCP(=O)(c5ccccc5)c5ccccc5)CC[C@]4(C)C3CC[C@@]21C (some centres undefined) |  | < 4.30 | < 4.30
O=C(O)c1cc(CNc2ccc(/C=C/c3ccc(NCc4ccc(O)c(C(=O)O)c4)cc3S(=O)(=O)O)c(S(=O)(=O)O)c2)ccc1O |  | 3.99 | 3.58
O=Cc1c(C(=O)O)[nH]c(=O)[nH]c1=O |  | < 3.70 | < 3.70
CC1(C)Oc2ccc3ccc(=S)oc3c2[C@@H](OC(=O)C23CCC(C)(C(=O)O2)C3(C)C)[C@H]1OC(=O)C12CCC(C)(C(=O)O1)C2(C)C (some centres undefined) |  | 6.28 | 5.25
Cn1c(=S)c2c(nc(SCCc3ccccc3)n2CCc2ccccc2)n(C)c1=O |  | < 3.70 | 4.53
CCOP(=O)(OCC)/C(C#N)=C/c1cc(O)ccc1O |  | < 3.08 | 3.84
CC(=O)NNC(=S)N/C=C(/C(=O)c1ccccc1)c1ccccc1 |  | < 3.32 | 3.52
C=CCOC(=O)/C(=C\c1ccc(OC)c(OC)c1)c1ccc(OC)c(OC)c1 |  | < 3.70 | < 3.70
COc1ccccc1N1C(=O)CSC1c1c[nH]c2ccccc12 (centres undefined) |  | < 3.54 | 3.73
CCOC(=O)/C(N=Nc1ccc(-n2c(C)nc3ccc(Br)cc3c2=O)cc1)=C(/C)O |  | < 3.70 | 4.40
CC(=O)O[C@@H]1CC[C@@]2(C)C(CC[C@H]3[C@@H]4CC[C@H]([C@H](C)CCc5nc6ccc(C)cc6[nH]5)[C@@]4(C)CC[C@@H]32)C1 (some centres undefined) |  | < 3.70 | 4.78
C#CC(O)CS(=O)(=O)c1ccccc1 (centres undefined) |  | < 4.00 | < 4.00
CCCCC(CC)COC(=O)CC(C(=O)OCC(CC)CCCC)S(=O)(=O)O (centres undefined) (tested in a mixture with another compound) |  | < 3.70 | < 3.70
COC1=C(C2=NC(C)(C)CO2)c2ccccc2C(C/C=C/[Si](C)(C)C)C1 (centres undefined) |  | < 4.57 | < 4.57
Cc1ccc(-c2oc3ccccc3c(=O)c2O)cc1 |  | < 3.70 | 4.27
Cc1cc(C)c2ccc(N3CCNCC3)nc2n1 |  | < 3.76 | 4.15
O=C1C=CC(=O)C2C1Cc1ccccc1C2c1ccccc1 (centres undefined) | inactive |  | 
C=C1[C@H](OC(=O)C(C)C)[C@@H](OC(C)=O)[C@@H](OC(C)=O)C(C)(C)[C@@H]2O[C@H]2[C@@H](C)C(=O)[C@@]2(OC(C)=O)C[C@@](C)(OC(C)=O)[C@H](OC(C)=O)[C@@H]2[C@H]1OC(C)=O |  | < 3.70 | < 3.70
Cc1cc2nc(CCC(=O)O)c(=O)[nH]c2cc1C |  | < 3.00 | < 3.00
CN(C)CC1CCC/C(=C\c2ccc(N(C)C)cc2)C1=O (centres undefined) |  | < 3.70 | 5.65
COC(=O)Nc1cn2c(n1)SCC2 |  | < 3.70 | < 3.70
